We go through 2 molecules from publication PMC9518288, “The mechanism and pharmacodynamics of 2-((1H-indol-3-yl)thio/sulfinyl)-N-pheny acetamide derivative as a novel inhibitor against human respiratory syncytial virus” (Journal of Enzyme Inhibition and Medicinal Chemistry, 2022).

Test [1] deals with RSV-Luc. Briefly: In vivo mouse imaging, oral route (intragastric). On the set-up: species or system BALB/c mice. Conditions: intragastric 30 and 90 mg/kg, gavage twice a day. The protocol: Female BALB/c mice of 6-8 weeks were purchased from Charles River Laboratories, Beijing, China and randomly divided into different groups with six mice in each group. All animal experiments were performed in compliance with protocols approved by the Institutional Animal Care and Use Committees of Tsinghua University (No. 17-DZJ1). The compounds (DMSO and ribavirin of 90 mg/kg was used as negative and positive control, respectively) with three different dose groups of 10, 30 and 90 mg/kg were administered to mice by intraperitoneal (i.p.) injection or oral route (anaesthesia with 2% halothane) at zero day and 1 h prior to the mice infected with 50 μL RSV-Luc (1 × 10^6 PFU), […] For the in vivo mouse imaging, 50 μL PBS containing D-Luciferin Potassium Salt (75 mg/kg) was administered to BALB/c mice via nasal drip at days 1, 2, 3, 4 and 5 since RSV-Luc infection, and 5 min later, the whole-body images of BALB/c mice were acquired using an IVIS Lumina II in vivo imaging system (PE, Waltham, MA, USA). And the signal intensity was quantified as the total flux (photons/seconds) using Living Image software (PE).
In order to further make clear whether the anti-RSV activity of 4–49 C and 1-HB-63 is dependent on the administration route or not, these two compounds were given intragastrically (Figure 5(A)). […]

Test [2] has as its system RSV-Luc. Briefly: Determination of RSV titre from lung tissues (RT-qPCR). As to conditions: i.p. 10, 30, 90 mg/kg, day 5 post-infection. Format: in vivo, BALB/c mice. The protocol:
Following the experiment of the in vivo mouse imaging mentioned above, the mice were sacrificed. The lung tissues were collected, weighed, quickly frozen under liquid nitrogen and ground with a tissue homogeniser. Then the total RNA was extracted by Trizol from 100 µL homogenates. The viral RNA sample (1 µL) was mixed with the SYBR Green supermix (10 µL), plasmid pMD-18T-N (1 µL, copy number from 1 × 10^7 copies/μL to 1 × 10^5 copies/μL), the upstream and downstream primers, respectively (10 µM, 1 µL) and water (1 µL). Reactions were performed in SLAN-96P Real-Time PCR System (Shanghai Hongshi Medical Technology) as follows: 42 °C for 60 min (for reverse transcription), 95 °C for 1.5 min, 95 °C for 15 s and 60 °C for 1 min, for 40 cycles. The reaction data were analysed by determining the threshold cycle (Ct).
Female BALB/c mice of 6–8 weeks were randomly divided into different groups with 6 mice in each group. All animal experiments were performed in compliance with protocols approved by the Institutional Animal Care and Use Committees of Tsinghua University (No. 17-DZJ1). At day 0, three different doses of 4–49 C and 1-HB-63 (10 mg/kg, 30 mg/kg, 90 mg/kg) were administered to mice by intraperitoneal (i.p.) injection, respectively, with DMSO and ribavirin of 90 mg/kg separately used as negative and positive control. […]

Test [3] relates to wtRSV in HEp-2 cells. Briefly: Time-of-addition assay (RT-qPCR). Format: cell-based, Human respiratory syncytial virus. As to conditions: wtRSV MOI 5, HEp-2, added at −1 to 14 h, RT-qPCR at 24 h post infection. The protocol: The time-of-addition assay was performed as follows according to our previous work and literature[25]^,[27]. HEp-2 cells were plated in 96 well plates at 1.5 × 10^4 cells per well in 100 µL culture medium and incubated for 24 h (37 °C, 5% CO2). Then, HEp-2 cells were infected with wtRSV at a multiplication of infection (MOI) of 5 for 2 h (37 °C, 5% CO2). The cells were washed with PBS and the media containing drugs and compounds of 4–49 C, 1-HB-63, RSV-604, GS-5806 and Ribavirin at 1 mM, 200 μM, 10 μM, 1 mM and 100 μM, respectively, were added at −1, 0, 2, 4, 6, 8, 10, 12 and 14 h post infection. After the treated cells were further cultured and collected at 24 h post infection, the total RNA was isolated from the HEp-2 cells using TRIzol reagent (Thermo Fisher Scientific, Waltham, MA, USA) and reverse transcribed with GoScript Reverse Transcriptase kit (Promega, Madison, WI, USA). Then, RT-qPCR was performed as described previously.
Figure 2. Investigation on the underlying mechanism 4–49 C and 1-HB-63 inhibiting wtRSV replication. (A) Time-of-addition analyses of 4-49C and 1-HB-63 replication. The HEp-2 cells were infected with wtRSV at a multiplication of infection (MOI) of 5 for 2 h (37 °C, 5% CO2). The cells were washed with PBS and the media containing drug (4-49C, 1-HB-63, RSV-604, GS-5806 and Ribavirin at 1 mM, 200 μM, 10 μM, 1 mM and 100 μM, respectively.) were added at −1, 0, 2, 4, 6, 8, 10, 12 and 14 h separately and incubated till 24 h post infection. Then, the cells were harvested and lysed for RNA extraction and RT-qPCR assay. The results were a representative of three independent experiments, and shown as means ± standard and expressed as % negative control, although in many cases the bars for the standard deviation were obscured by the symbols given the small margin of values. (B) RSV adsorption analyses. […] After 24 h, we cotransfected RSV minigenome plasmid of pBR322B-RSV-Gluc with four auxiliary plasmids into BHK/T7 cells and detected the expression of Gluc in the supernatant. […]
On the technique in general: Real-time PCR tracks product formation cycle by cycle.

As to `O=C(C[S+]([O-])c1c[nH]c2ccccc12)Nc1ccccc1Br` (stereo not drawn) [1-HB-63], the “fluorescence signals (RSV-Luc replication) compared with DMSO negative control group” value in test [1] is listed as “did not exhibit significant differences”. Moreover, in test [2], the “virus titres in lung tissues compared with DMSO” value is recorded as “no significant differences”. Moreover, the “time points of addition at which virus replication is inhibited” value in test [3] (compound at 200 μM) is “significantly inhibited virus replication when added at the time points of −1, 0, 2 and 4 h”.

Take `CCOc1ccccc1NC(=O)CSc1c[nH]c2ccc(OC)cc12` [4–49 C]: the “fluorescence signals (RSV-Luc replication) compared with DMSO negative control group” value in test [1] is given as “did not exhibit significant differences”. For the same molecule, in test [2], the “virus titres in lung tissues compared with DMSO” value is on record as “no significant differences”. For the same molecule, in test [3] (compound at 1 mM), the “time points of addition at which virus replication is inhibited” value is “significantly inhibited virus replication when added at the time points of −1, 0 and 2 h”.
